From patent US20130236480A1, “TRANSGLUTAMINASE 2 INHIBITORS FOR USE IN THE PREVENTION OR TREATMENT OF RAPIDLY PROGRESSIVE GLOMERULONEPHRITIS” (priority 2010, published 2013)

Test system: primary culture of mouse podocytes
Experiment: Wound assay of podocyte migration
Format: cell-based
Conditions: 100 μM MDC in DMSO, differentiated podocytes, p<0.05 vs. vehicle alone (n=3)
Method: FIG. 4: Distance of migration of differentiated podocytes within 20 h in the wound assay. A wound assay was used to assess podocyte migration. Differentiated cells were seeded in a 35 mm μ-Dish (Ibidi) forming two confluent monolayers separated by a silicon insert of 500 μm width. After 1 day, the silicon insert was removed and 100 μM of MDC (monodansylcadaverin, Sigma-Aldrich #D4008) diluted in DMSO, a TG2 inhibitor, was added or not. Cells were fixed 20 h later and the distance between the two monolayers was measured. *p<0.05 vs. vehicle alone (n=3 per condition).
In vivo podocytes are terminally differentiated and stationary cells. During crescent formation in anti-GBM GN in mice, however, podocytes assume a migratory phenotype, attach with their apical membrane onto the parietal basement membrane and start to proliferate.

## CN(C)c1cccc2c(S(=O)(=O)NCCCCCN)cccc12 [monodansylcadaverine]
  Migration of podocytes (distance of migration within 20 h in the wound assay): significantly blunted
